Measurements published in paper PMC13224100, “Esterase-Responsive Mitochondria-Targeted Hydropersulfide Donors Mitigate Doxorubicin Cardiotoxicity While Preserving Anticancer Activity” (Angewandte Chemie (International ed. in English), 2025).

Legend:
H9c2 cells = test: Cytotoxicity of RSSH donors, CCK-8 assay; type: cell-based; details: up to 200 μM, 24 h
Experimental: We evaluated the cytoprotective effects of RSSH precursors against DOX-induced cardiotoxicity in H9c2 cardiomyoblasts. First, we assessed the cytotoxicity of the RSSH donors (AST-2, APT-1, AST-2-TPP, and APT-1-TPP) using the CCK-8 assay.[24] […] To evaluate cytoprotection, H9c2 cells were pretreated with RSSH donors for 4 h, followed by 24 h co-treatment with DOX (5 μM). As expected, DOX alone reduced cell viability to ca. 50% (Figure 4a). […] Although both compounds were protective, […]. […] A distinctive feature of our study is the direct comparison between mitochondria-targeted and non-targeted RSSH donors. […] TPP conjugation only modestly enhances the cytoprotective effects of RSSH donors under our experimental conditions. This outcome may reflect the intrinsic high efficacy of non-targeted RSSH donors, thereby limiting the additional benefit of mitochondrial targeting. […]
Cytotoxicity Assessment of Hydropersulfide Precursors in H9c2 and HepG2 cells Cell viability was measured using the Cell Counting Kit-8 (CCK-8, Dojindo).[7] H9c2 cardiomyoblast and HepG2 cells were seeded at a density of 8 × 10³ cells/well in a 96-well plate (flat-bottom, tissue culture-treated). […] All treatments were prepared with a final DMSO concentration of <0.01%. In the vehicle control group, cells were treated with medium (DMEM with 10% FBS) containing 0.01% DMSO only. Cells were incubated with RSSH donors for an additional 24 h. After 24 h, cells were gently washed three times with PBS, pH 7.4. […] The plates were then incubated for 1-2 h before measuring absorbance at 450 nm using a plate reader […]
calculated as: % Viability = 100 × [Abs₄₅₀ (treated cells) / Abs₄₅₀ (vehicle control)]. Each treatment condition was performed in 6 technical replicates per biological replicate, and the experiment was independently repeated three times (n = 3 biological replicates). Data are presented as mean ±
(§1) (1 picture or pasted object on this page, not shown here)
Figure S23. Impact of (A) AST-2 or AST-2-TPP (0-200 µM) and (B) APT-1 (0-200 µM) or APT -1-TPP (0-200 µM) on H9c2 cardiomyocytes. Impact of (C) AST-2 or AST-2-TPP (0-200 µM) and (D) APT-1 (0-200 µM) or APT-1-TPP (0-200 µM) on HepG2 (liver cancer) cells. Results are expressed as mean ± SEM, n≥3; *P<0.05, **P<0.01, ***P<0.001, ****P<0.0001. Ctl = vehicle (medium with 0.01% DMSO) treated cells. […]

[1] = Aqueous stability of RSSH precursors in PBS; type: physicochemical
Experimental: We synthesized AST-2 as an esterase-sensitive RSSH donor via reaction of N-acetylpenicillamine methyl ester with methoxycarbonyl sulfenyl chloride in dichloromethane at 0 °C, affording the product in 72% yield (see Scheme S1). We first evaluated the aqueous stability of AST-2 in phosphate-buffered saline (PBS, pH 7.4) at 37 °C.
APT-1 was synthesized in 93% overall yield via a one-pot two-step sequence: N-acetylpenicillamine methyl ester was reacted with chlorocarbonylsulfenyl chloride to afford an S-perthiocarbonyl chloride intermediate, which was subsequently treated with 2-acetoxy-N-methylethan-1-aminium chloride in the presence of triethylamine (see Supporting Information).
We first evaluated the aqueous stability of the mitochondria-targeted analogs AST-2-TPP and APT-1-TPP. […] APT-1-TPP similarly retained excellent stability, with < 5% degradation over 41 h (Figure S1D).

[2] = Stability of RSSH precursors with glutathione by HPLC; type: physicochemical; details: GSH 500 µM (5 equiv), PBS pH 7.4, 37 °C; for half-life at 100 µM: PBS with glutathione (500 µM), pH 7.4, precursor 100 µM, read-out: decomposition half-life (t1/2) in the presence of GSH; for decomposition half-life (t1/2) in the presence of GSH / decomposition rate constant in the presence of GSH: precursor 100 µM; for decomposition rate constant in the presence of GSH: in min-1
Experimental: We next evaluated whether our newly developed precursors generate RSSH in the presence of thiols, which are abundant in biological systems. We examined their reactivity toward glutathione (GSH, 5 equiv) in PBS (pH 7.4, 37 °C), and precursor consumption was quantified by HPLC. […] We attribute this difference to their intrinsic reactivity. As shown previously,[23] AST donors can undergo nucleophilic attack either at the carbonyl carbon, producing the intended RSSH and a thiocarbonate byproduct (Scheme 3a, Path A), or at the disulfide bond, giving an unsymmetrical disulfide and a thiocarbonate intermediate (Scheme 3a, Path B). The higher electrophilicity of the perthiocarbonate carbonyl likely explains the faster consumption of AST derivatives. In contrast, and consistent with earlier studies,[24] APT-1 and APT-1-TPP react mainly through thiol–disulfide exchange (Scheme 3b, Path B), as attack at the perthiocarbamate carbonyl is disfavored due to its lower electrophilicity compared with the perthiocarbonate in AST donors. […]
(n = 3), and data are reported as mean ± standard deviation (SD).
Stability of RSSH Precursors with Glutathione by HPLC
Stock solutions of RSSH precursor (10 mM in DMSO) and GSH (20 mM in PBS, pH 7.4) were prepared immediately prior to the assay. The RSSH precursor (100 µM) was incubated with GSH (500 µM) in phosphate-buffered saline (PBS, pH 7.4) at 37 °C. At designated time points, 200 μL aliquots were withdrawn and immediately quenched by mixing with an equal volume of ice-cold 0.1% formic acid. Samples were analyzed by Agilent HPLC with UV detection using a C18 reverse-phase column (Phenomenex Luna C18, 4.6 × 150 mm, 5 μm) at 25 °C with a flow rate of 1.0 mL/min and an injection volume of 20 μL. The gradient elution (all solvents v/v, containing 0.1% trifluoroacetic acid) was as follows: 0–10 min, linear gradient from 90% water / 10% acetonitrile to 50% water / 50% acetonitrile; 10–18 min, to 10% water / 90% acetonitrile; 18–20 min, held at 10% water / 90% acetonitrile; 20–25 min, return to 90% water / 10% acetonitrile.
Absorbance was monitored at 275 nm. The percentage of precursor remaining at each time point was calculated by comparing the absorbance at 275 nm to the initial value. All experiments were performed in triplicate (n = 3), and data are reported as mean ± standard deviation (SD).
Figure S19. Stability profiles of (A) AST-2, (B) APT-1, (C) AST-2-TPP, and (D) APT-1-TPP in PBS, pH 7.4 at 37 °C in the presence of GSH. Decomposition rate constant for AST-2, APT-1, AST-2-TPP, and APT-1- […]
Decomposition half-lives for AST-2, APT-1, AST-2-TPP, and APT-1-TPP are 8.6 ± 0.1 min, 39.7 ± 1.2 min, 6.3 ± 0.1 min, and 56.2 ± 4.0 min, respectively. Data are mean ± standard deviation (SD) (n = 3)
as §1

Compound | cytotoxicity of donor alone (H9c2 cells) | degradation (aqueous stability) ([1]; PBS pH 7.4, 37 °C, over 41 h) [%] | half-life at 100 µM [2] [min] | decomposition half-life (t1/2) in the presence of GSH [2] [min] | decomposition rate constant in the presence of GSH [2] | decomposition (aqueous stability) ([1]; PBS, 37 °C, over 48 h) [%] | decomposition (aqueous stability) ([1]; PBS pH 7.4, 37 °C, over 7 h) | decomposition (aqueous stability) ([1]; PBS pH 7.4, 37 °C, over 9 h) [%]
CC(=O)NC(C(=O)N(C)CCC[P+](c1ccccc1)(c1ccccc1)c1ccccc1)C(C)(C)SSC(=O)N(C)CCOC(C)=O (centres unmarked) [APT-1-TPP] | no measurable toxicity | < 5 | 56.2 ± 4 | 56 | 0.01236 ± 0.00066 |  |  | 
COC(=O)C(NC(C)=O)C(C)(C)SSC(=O)N(C)CCOC(C)=O (centres unmarked) [APT-1] | no measurable toxicity |  | 39.7 ± 1.2 | 40 | 0.01749 ± 0.00052 | 7 |  | 
COC(=O)SSC(C)(C)C(NC(C)=O)C(=O)N(C)CCC[P+](c1ccccc1)(c1ccccc1)c1ccccc1 (centres unmarked) [AST-2-TPP] | no measurable toxicity |  | 6.3 ± 0.1 | 6 | 0.1094 ± 0.00183 |  | ca. 20% | 
COC(=O)SSC(C)(C)C(NC(C)=O)C(=O)OC (centres unmarked) [AST-2] | no measurable toxicity |  | 8.6 ± 0.1 | 9 | 0.08081 ± 0.00105 |  |  | 22
